From patent US20260184710A1, “CASITAS B-LINEAGE LYMPHOMA PROTOONCOGENE B (CBL-B) DEGRADING COMPOUNDS AND ASSOCIATED METHODS OF USE” (Arvinas Operations, Inc., priority 2022, published 2026)

Key:
Cbl-b [1] = target: T1, Cbl-b (Homo sapiens, UniProt Q13191); assay: Cbl-b Degradation Method A (FACS, anti-Cbl-b antibody staining); type: cell-based; conditions: Cbl-b-HiBit KI Jurkat Cells, incubated at least 20 hours; for DC50: half maximal degradation, read-out: Cbl-b Degredation Method A IC50
T1 construct: Cbl-b-HiBit KI Jurkat Cells were purchased from Promega; host or cells: Cbl-b-HiBiT knock-in Jurkat cells
T1 sequence (Q13191 whole entry): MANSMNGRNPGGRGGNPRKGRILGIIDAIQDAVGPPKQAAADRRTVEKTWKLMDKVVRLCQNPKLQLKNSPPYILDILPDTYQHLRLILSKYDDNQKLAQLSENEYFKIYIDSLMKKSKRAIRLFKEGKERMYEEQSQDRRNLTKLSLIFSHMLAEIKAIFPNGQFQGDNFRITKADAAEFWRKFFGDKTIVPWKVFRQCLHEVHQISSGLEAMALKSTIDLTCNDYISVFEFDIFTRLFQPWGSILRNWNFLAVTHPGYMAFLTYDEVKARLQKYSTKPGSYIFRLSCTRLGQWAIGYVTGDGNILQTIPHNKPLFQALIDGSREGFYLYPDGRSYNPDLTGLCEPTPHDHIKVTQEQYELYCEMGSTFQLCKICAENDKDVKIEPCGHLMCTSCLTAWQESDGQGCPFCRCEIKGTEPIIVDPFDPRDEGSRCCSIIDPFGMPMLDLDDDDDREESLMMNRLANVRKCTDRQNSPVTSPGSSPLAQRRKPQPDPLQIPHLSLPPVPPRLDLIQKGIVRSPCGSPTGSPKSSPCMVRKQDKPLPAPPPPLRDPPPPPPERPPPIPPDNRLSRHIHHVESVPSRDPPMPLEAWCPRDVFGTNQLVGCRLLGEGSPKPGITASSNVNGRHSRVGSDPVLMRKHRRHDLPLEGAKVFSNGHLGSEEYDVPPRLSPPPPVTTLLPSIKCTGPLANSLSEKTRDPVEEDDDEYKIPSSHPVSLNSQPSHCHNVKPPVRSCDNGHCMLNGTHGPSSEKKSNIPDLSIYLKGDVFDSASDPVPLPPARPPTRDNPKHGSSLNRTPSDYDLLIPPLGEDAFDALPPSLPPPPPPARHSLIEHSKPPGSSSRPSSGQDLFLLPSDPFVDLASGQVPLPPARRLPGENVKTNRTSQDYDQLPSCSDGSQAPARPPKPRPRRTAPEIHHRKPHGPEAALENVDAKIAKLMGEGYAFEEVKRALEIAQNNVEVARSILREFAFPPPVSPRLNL
Summary of the method: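 Readout is flow cytometry of fixed, permeabilized cells immunostained for Cbl-b (primary 1:200, AF488 secondary). Cells were Cbl-b-HiBit knock-in Jurkat, exposed to compound ≥20 h at 37 °C; half-maximal degradation concentration (DC50) and maximal degradation (Dmax) calculated relative to control.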

Cbl-b [2] = target: T1, Cbl-b; assay: Cbl-b Degradation Method B (Nano-Glo HiBiT lytic detection); type: cell-based; conditions: Cbl-b-HiBit KI Jurkat Cells, incubated at least 6-24 hours; for DC50: half maximal degradation, read-out: Cbl-b Degredation Method B IC50
Summary of the method: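 An 11-point, 3-fold compound dilution was applied for 6-24 hours to Jurkat cells carrying HiBiT-tagged endogenous Cbl-b. Lytic HiBiT luminescence quantified residual protein. Outputs are DC50 and Dmax relative to DMSO control.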

DC50 (Cbl-b [1])	DC50 (Cbl-b [2])	Dmax (Cbl-b [2]; maximum degradation observed, read-out: Cbl-b Degredation Method B Dmax (%))	Dmax (Cbl-b [1]; Jurkat, maximum degradation observed, read-out: Cbl-b Degredation Method A Dmax (%))	Compound
> 500 nM	> 500 nM			Cn1cnnc1CC1(c2cccc(N3Cc4c(cc(CN5CCCC(CN6CCN(c7ccc8c(c7)C(=O)N(C7CCC(=O)NC7=O)C8=O)CC6)C5)cc4C(F)(F)F)C3=O)c2)COC1 (centres unmarked) [Example 76, 2-(2,6-dioxopiperidin-3-yl)-5-{4-[(1-{[2-(3-{3-[(4-methyl-4H-1,2,4-triazol-3-yl)methyl]oxetan-3-yl}phenyl)-3-oxo-7-(trifluoromethyl)-2,3-dihydro-1H-isoindol-5-yl]methyl}piperidin-3-yl)methyl]piperazin-1-yl}-2,3-dihydro-1H-isoindole-1,3-dione]
> 500 nM	> 500 nM			Cn1cnnc1CC1(c2cccc(N3Cc4c(cc(CN5CCC(CN6CCC(C7CCN(c8ccc9c(c8)C(=O)N(C8CCC(=O)NC8=O)C9=O)CC7)CC6)CC5)cc4C(F)(F)F)C3=O)c2)COC1 (centres unmarked) [Example 77, 2-(2,6-dioxopiperidin-3-yl)-5-{1′-[(1-{[2-(3-{3-[(4-methyl-4H-1,2,4-triazol-3-yl)methyl]oxetan-3-yl}phenyl)-3-oxo-7-(trifluoromethyl)-2,3-dihydro-1H-isoindol-5-yl]methyl}piperidin-4-yl)methyl]-[4,4′-bipiperidin]-1-yl}-2,3-dihydro-1H-isoindole-1,3-dione]
> 500 nM	> 500 nM			Cn1cnnc1CC1(c2cccc(N3Cc4c(cc(CN5CCC(CC6CN(c7ccc8c(c7)C(=O)N(C7CCC(=O)NC7=O)C8=O)C6)CC5)cc4C(F)(F)F)C3=O)c2)COC1 (centres unmarked) [Example 79, 2-(2,6-dioxopiperidin-3-yl)-5-{3-[(1-{[2-(3-{3-[(4-methyl-4H-1,2,4-triazol-3-yl)methyl]oxetan-3-yl}phenyl)-3-oxo-7-(trifluoromethyl)-2,3-dihydro-1H-isoindol-5-yl]methyl}piperidin-4-yl)methyl]azetidin-1-yl}-2,3-dihydro-1H-isoindole-1,3-dione]
> 500 nM	> 500 nM			Cn1cnnc1CC1(c2cccc(N3Cc4c(cc(CN5CCC(CN6CC7(CCN(c8ccc9c(c8)C(=O)N(C8CCC(=O)NC8=O)C9=O)CC7)C6)CC5)cc4C(F)(F)F)C3=O)c2)COC1 (centres unmarked) [Example 81, 2-(2,6-dioxopiperidin-3-yl)-5-{2-[(1-{[2-(3-{3-[(4-methyl-4H-1,2,4-triazol-3-yl)methyl]oxetan-3-yl}phenyl)-3-oxo-7-(trifluoromethyl)-2,3-dihydro-1H-isoindol-5-yl]methyl}piperidin-4-yl)methyl]-2,7-diazaspiro[3.5]nonan-7-yl}-2,3-dihydro-1H-isoindole-1,3-dione]
> 500 nM	> 500 nM			Cn1cnnc1CC1(c2cccc(N3Cc4c(cc(CN5CCC(CN6CCC(c7ccc8c(c7)C(=O)N(C7CCC(=O)NC7=O)C8=O)CC6)CC5)cc4C(F)(F)F)C3=O)c2)COC1 (centres unmarked) [Example 82, 2-(2,6-dioxopiperidin-3-yl)-5-{1-[(1-{[2-(3-{3-[(4-methyl-4H-1,2,4-triazol-3-yl)methyl]oxetan-3-yl}phenyl)-3-oxo-7-(trifluoromethyl)-2,3-dihydro-1H-isoindol-5-yl]methyl}piperidin-4-yl)methyl]piperidin-4-yl}-2,3-dihydro-1H-isoindole-1,3-dione]
> 500 nM	> 500 nM			Cn1cnnc1CC1(c2cccc(N3Cc4c(cc(CN5CCC(CN6CC(C7CN(c8ccc9c(c8)C(=O)N(C8CCC(=O)NC8=O)C9=O)C7)C6)CC5)cc4C(F)(F)F)C3=O)c2)COC1 (centres unmarked) [Example 83, 2-(2,6-dioxopiperidin-3-yl)-5-{1′-[(1-{[2-(3-{3-[(4-methyl-4H-1,2,4-triazol-3-yl)methyl]oxetan-3-yl}phenyl)-3-oxo-7-(trifluoromethyl)-2,3-dihydro-1H-isoindol-5-yl]methyl}piperidin-4-yl)methyl]-[3,3′-biazetidin]-1-yl}-2,3-dihydro-1H-isoindole-1,3-dione]
> 500 nM	> 500 nM			Cn1cnnc1CC1(c2cccc(N3Cc4c(cc(CN5CCC(CN6CCC(COc7ccc8c(c7)C(=O)N(C7CCC(=O)NC7=O)C8=O)CC6)CC5)cc4C(F)(F)F)C3=O)c2)COC1 (centres unmarked) [Example 84, 2-(2,6-dioxopiperidin-3-yl)-5-({1-[(1-{[2-(3-{3-[(4-methyl-4H-1,2,4-triazol-3-yl)methyl]oxetan-3-yl}phenyl)-3-oxo-7-(trifluoromethyl)-2,3-dihydro-1H-isoindol-5-yl]methyl}piperidin-4-yl)methyl]piperidin-4-yl}methoxy)-2,3-dihydro-1H-isoindole-1,3-dione]
5 to 50 nM	5 to 50 nM	> 70%		C[C@H]1C[C@@H](CN2CCN(c3ccc4c(c3)C(=O)N(C3CCC(=O)NC3=O)C4=O)CC2)CN(Cc2cc3c(c(C(F)(F)F)c2)CN(c2cccc(C4(Cc5nncn5C)COC4)c2)C3=O)C1 (stereo partly drawn) [Example 85, 2-(2,6-dioxopiperidin-3-yl)-5-(4-{[(3R,5S)-5-methyl-1-{[2-(3-{3-[(4-methyl-4H-1,2,4-triazol-3-yl)methyl]oxetan-3-yl}phenyl)-3-oxo-7-(trifluoromethyl)-2,3-dihydro-1H-isoindol-5-yl]methyl}piperidin-3-yl]methyl}piperazin-1-yl)-2,3-dihydro-1H-isoindole-1,3-dione]
> 500 nM	> 500 nM			C[C@@H]1C[C@@H](CN2CCN(c3ccc4c(c3)C(=O)N(C3CCC(=O)NC3=O)C4=O)CC2)CN(Cc2cc3c(c(C(F)(F)F)c2)CN(c2cccc(C4(Cc5nncn5C)COC4)c2)C3=O)C1 (stereo partly drawn) [Example 86, 2-(2,6-dioxopiperidin-3-yl)-5-(4-{[(3R,5R)-5-methyl-1-{[2-(3-{3-[(4-methyl-4H-1,2,4-triazol-3-yl)methyl]oxetan-3-yl}phenyl)-3-oxo-7-(trifluoromethyl)-2,3-dihydro-1H-isoindol-5-yl]methyl}piperidin-3-yl]methyl}piperazin-1-yl)-2,3-dihydro-1H-isoindole-1,3-dione]
50 to 500 nM	> 500 nM			Cn1cnnc1CC1(c2cccc(N3Cc4c(cc(CN5CCC(COCCOc6ccc7c(c6)C(=O)N(C6CCC(=O)NC6=O)C7=O)CC5)cc4C(F)(F)F)C3=O)c2)COC1 (centres unmarked) [Example 87, 2-(2,6-dioxopiperidin-3-yl)-5-(2-((1-((2-(3-(3-((4-methyl-4H-1,2,4-triazol-3-yl)methyl)oxetan-3-yl)phenyl)-3-oxo-7-(trifluoromethyl)isoindolin-5-yl)methyl)piperidin-4-yl)methoxy)ethoxy)isoindoline-1,3-dione]
> 500 nM	> 500 nM			Cn1cnnc1CC1(c2cccc(N3Cc4c(cc(CN5CCC(CN6CCN(c7cccc8c7C(=O)N(C7CCC(=O)NC7=O)C8=O)CC6)CC5)cc4C(F)(F)F)C3=O)c2)COC1 (centres unmarked) [Example 88, 2-(2,6-dioxopiperidin-3-yl)-4-(4-((1-((2-(3-(3-((4-methyl-4H-1,2,4-triazol-3-yl)methyl)oxetan-3-yl)phenyl)-3-oxo-7-(trifluoromethyl)isoindolin-5-yl)methyl)piperidin-4-yl)methyl)piperazin-1-yl)isoindoline-1,3-dione]
> 500 nM	> 500 nM			Cn1cnnc1CC1(c2cccc(N3Cc4c(cc(CN5CCC(COCCOCCOc6ccc7c(c6)C(=O)N(C6CCC(=O)NC6=O)C7=O)CC5)cc4C(F)(F)F)C3=O)c2)COC1 (centres unmarked) [Example 89, 2-(2,6-dioxopiperidin-3-yl)-5-(2-{2-[(1-{[2-(3-{3-[(4-methyl-4H-1,2,4-triazol-3-yl)methyl]oxetan-3-yl}phenyl)-3-oxo-7-(trifluoromethyl)-2,3-dihydro-1H-isoindol-5-yl]methyl}piperidin-4-yl)methoxy]ethoxy}ethoxy)-2,3-dihydro-1H-isoindole-1,3-dione]
> 500 nM	> 500 nM		< 35%	C[C@H]1C[C@@H](CN2CCN(c3cccc4c3C(=O)N(C3CCC(=O)NC3=O)C4=O)CC2)CN(Cc2cc3c(c(C(F)(F)F)c2)CN(c2cccc(C4(Cc5nncn5C)COC4)c2)C3=O)C1 (stereo partly drawn) [Example 90, 2-(2,6-dioxopiperidin-3-yl)-4-(4-{[(3R,5S)-5-methyl-1-{[2-(3-{3-[(4-methyl-4H-1,2,4-triazol-3-yl)methyl]oxetan-3-yl}phenyl)-3-oxo-7-(trifluoromethyl)-2,3-dihydro-1H-isoindol-5-yl]methyl}piperidin-3-yl]methyl}piperazin-1-yl)-2,3-dihydro-1H-isoindole-1,3-dione]
> 500 nM	> 500 nM			Cn1cnnc1CC1(c2cccc(N3Cc4c(cc(CN5CCC(COCCOCCOc6cccc7c6C(=O)N(C6CCC(=O)NC6=O)C7=O)CC5)cc4C(F)(F)F)C3=O)c2)COC1 (centres unmarked) [Example 91, 2-(2,6-dioxopiperidin-3-yl)-4-(2-{2-[(1-{[2-(3-{3-[(4-methyl-4H-1,2,4-triazol-3-yl)methyl]oxetan-3-yl}phenyl)-3-oxo-7-(trifluoromethyl)-2,3-dihydro-1H-isoindol-5-yl]methyl}piperidin-4-yl)methoxy]ethoxy}ethoxy)-2,3-dihydro-1H-isoindole-1,3-dione]
> 500 nM	> 500 nM			CC1CC(CN2CC3(CCN(c4ccc5c(c4)C(=O)N(C4CCC(=O)NC4=O)C5=O)CC3)C2)CN(Cc2cc3c(c(C(F)(F)F)c2)CN(c2cccc(C4(Cc5nncn5C)COC4)c2)C3=O)C1 (centres unmarked) [Example 92, 2-(2,6-dioxopiperidin-3-yl)-5-{2-[(5-methyl-1-{[2-(3-{3-[(4-methyl-4H-1,2,4-triazol-3-yl)methyl]oxetan-3-yl}phenyl)-3-oxo-7-(trifluoromethyl)-2,3-dihydro-1H-isoindol-5-yl]methyl}piperidin-3-yl)methyl]-2,7-diazaspiro[3.5]nonan-7-yl}-2,3-dihydro-1H-isoindole-1,3-dione]
